System: NF-κB
Assay: NF-kappaB reporter assay (pNF-kappaB-SEAP) in IL-1β-stimulated MKN-45 cells
Assay type: cell-based, human
Details: IL-1β 2 ng/mL for 6 hours, DMSO (0.05%) control = 1.00, triplicate
Description: pNF-kappaB-SEAP was obtained from Clonetech Laboratories Inc.
Cryopreserved MKN-45 cells (product of JCRB (Japanese Collection of Research Bioresources)) were thawed and cultured in a standard medium in an incubator (37° C., 5% CO2). Every three to five days, the cells were recovered by treatment with Trypsin-EDTA, then adequately diluted and subcultured. MKN-45 cells subcultured two or more times with a survival rate of 95% or more were used in each experiment.
The subcultured MKN-45 cells were harvested using Trypsin-EDTA solution, and the number of viable cells was counted. The cells were suspended in a standard medium to yield a 1.5×10^5 cells/mL suspension. A 24-well plate was seeded with 500 μL/well of the cell suspension, and the cells were cultured in an incubator (37° C., 5% CO2).
The day after seeding, transfection was performed according to the following protocol.
(4.1) Preparation of Plasmid Solution 4 μL of 0.1 μg/μL pNFkappaB-SEAP was placed into each well and diluted with 50 μL of OPTI-MEM I (product of Invitrogen Japan K.K.) by mixing by inversion.
1 μL of Lipofectamine 2000 reagent (product of Invitrogen) was placed into each well and diluted with 50 μL of OPTI-MEM I (product of Life Technologies Inc.) by mixing by inversion. The mixture was allowed to stand at room temperature for 5 to 10 minutes to prepare a Lipofectamine dilution.
The plasmid solution and the Lipofectamine dilution were mixed by inversion and allowed to stand at room temperature for 20 to 30 minutes to prepare a transfection mixture.
The culture medium was removed from the 24-well plate by suction. While care was taken not to dry the subcultured MKN-45 cells, the inner surface of the wells was washed with 1 mL/well of PBS. After the medium was replaced with 500 μL/well of OPTI-MEM I (product of Life Technologies Inc.), 100 μL/well of the transfection mixture was added, and the cells were cultured in a incubator (37° C., 5% CO2). After about 5 hours of incubation, the medium was replaced with a standard medium, and the cells were further cultured in a CO2 incubator (37° C., 5% CO2) until the following day.
On the following morning, the culture medium supernatant was removed by suction and replaced with 1 mL/well of the test compound solution or control solution diluted with a standard medium. The cells were cultured in a CO2 incubator (37° C., 5% CO2) for 1 hour. Each experiment was performed in triplicate.
200 ng/mL IL-1β was added in an amount of 10 μL/well (final concentration: 2 ng/mL), and the cells were cultured in a CO2 incubator (37° C., 5% CO2) for 6 hours.
A reporter assay was performed using Reporter Assay Kit-SEAP (product of Toyobo Co.) according to the manufacturer's protocol.
More specifically, 500 μL of the culture broth was transferred into a tube and centrifuged at 15,000 rpm for 5 minutes at 4° C. The supernatant was transferred into a 96-well white plate. The positive control included in the Reporter Assay Kit-SEAP, and a standard medium as a blank control were each added in an amount of 20 μL/well to the 96-well white plate. Further, an inhibitor for inhibiting the AP activity of the MKN-45 cells was added in an amount of 20 μL/well. After sealing the plate, the contents were mixed well. The plate was placed into a CO2 incubator (37° C., 5% CO2) and allowed to stand for 30 minutes. Subsequently, the plate was allowed to stand on ice for 1 minute, followed by addition of 160 μL/well of Lumi-Phos Plus (a chemiluminescent substrate, product of Lumigen Inc.). The plate was sealed again and placed in a light-shielded state into a CO2 incubator (37° C., 5% CO2). After the plate was allowed to stand for 15 to 30 minutes, luminescence was measured for about 5 to about 10 seconds using a luminometer.
The results of the reporter assay were expressed as Percent Control (or Inhibition), calculated according to the following formulae. The luminescence of each sample was calculated by subtracting the average of blank samples.

COc1ccc(CC2SC(=S)NC2=O)c2c1N(CCC(C)C)C(=O)CC2 (stereo not shown) [Test Compound 965]
NF-kappaB reporter (SEAP luminescence) IL-1b(+) mean, relative to control: 0.68
